From article PMC10005056, “Design and Synthesis of New Acyl Urea Analogs as Potential σ1R Ligands” (Molecules, 2023)

target: σ1R (Homo sapiens, UniProt Q99720); test: In vitro σ1R binding assay (radioligand displacement, NIMH PDSP); conditions: read-out: In Vitro σ1R Affinity (Ki)
Text: Online Molinspiration and Osiris property explorer were used to calculate/predict drug-like molecular properties for the target compounds. These studies involved retrieving the σ1R crystal structure (5HK1) with embedded ligand (PD144418), preparation (e.g., H2O and ligand removal), and docking the target molecules via the PyRx and AutoDock Vina suite. […] Synthetically, a variety of approaches for obtaining acyl ureas were reviewed and the most feasible conditions were attempted with limited success—our goal was to obtain our compounds using the shortest and most cost-effective approach. […] We therefore slightly modified Stokes’ conditions by preparing the N-(phenoxycabonyl)benzamide intermediate from phenol and benzoyl isocynate. Coupling the intermediate with amines or amides or thioamides via simple nucleophilic displacement afforded our series of N-acyl ureas plus N-acyl thioureas (Table 1) in good yields (>64%). To confirm our pharmacological assumptions regarding these molecules behaving like PD144418, the compounds were sent to the National Institute of Mental Health’s Psychoactive Drug Screening Program and evaluated in radioligand displacement assays to determine their in vitro σ1R affinities or Ki values.
Computational (kcal/mol) versus in vitro (μM, from the National Institute of Mental Health Psychoactive Drug Screening Program or NIMH-PDSP [https://pdsp.unc.edu/pdspweb/ (accessed 28 February 2023)] σ1R binding affinity data are illustrated in Table 4.
Sigma-1 binding affinity experiments (Ki determinations) were conducted at the National Institute of Mental Health’s Psychoactive Drug Screening Program (NIMH PDSP). Sigma-1 receptor binding assay protocol details (radioligand displacement conditions, etc.) are available at https://pdsp.unc.edu/pdspweb/content/PDSP%20Protocols%20II%202013-03-28.pdf (accessed 28 February 2023).

σ1R, sequence (Q99720 whole entry, species assumed): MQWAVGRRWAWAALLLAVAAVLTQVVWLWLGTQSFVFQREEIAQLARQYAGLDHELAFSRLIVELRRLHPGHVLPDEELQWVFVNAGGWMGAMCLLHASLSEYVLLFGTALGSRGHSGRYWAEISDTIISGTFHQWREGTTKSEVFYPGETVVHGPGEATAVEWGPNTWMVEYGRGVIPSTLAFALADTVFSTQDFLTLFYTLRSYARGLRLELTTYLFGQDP

Point of comparison: `COc1cc(C(=S)NC(=O)NC(=O)c2ccccc2)ccc1O` [Compound 12, N-((4-Hydroxy-3-methoxyphenylcarbonothioyl)carbamoyl) benzamide], Ki 9.54 µM. Against it:
- Cc1cc(NC(=O)NC(=O)c2ccccc2)no1 [Compound 1, N-((5-Methylisoxazol-3-yl)carbamoyl)benzamide] — higher, > 10 µM
- O=C(NC(=O)c1ccccc1)Nc1ccc2[nH]ccc2c1 [Compound 2] — higher, > 10 µM
- O=C(NC(=O)c1ccccc1)NC(=S)c1ccccn1 [Compound 3, N-((Pyridine-2-carbonothioyl)carbamoyl)benzamide] — higher, > 10 µM
- Cc1cc2cc(NC(=O)NC(=O)c3ccccc3)ccc2[nH]1 [Compound 4, N-((2-Methyl-1H-indol-5-yl)carbamoyl)benzamide] — higher, > 10 µM
- O=C(NC(=O)N1CCN(c2ncccn2)CC1)c1ccccc1 [Compound 5, N-Benzoyl-4-(pyrimidin-2-yl)piperazine-1-carboxamide] — higher, > 10 µM
- O=C(NC(=O)N1CCN(c2ccncc2)CC1)c1ccccc1 [Compound 6, N-Benzoyl-4-(pyridin-4-yl)piperazine-1-carboxamide] — higher, > 10 µM
- O=C(NC(=O)N1CCC(O)CC1)c1ccccc1 [Compound 7] — higher, > 10 µM
- Cc1ccc(N2CCN(C(=O)NC(=O)c3ccccc3)CC2)cc1 [Compound 8, N-Benzoyl-4-(p-tolyl)piperazine-1-carboxamide] — higher, > 10 µM
- CC(C)(C)OC(=O)N1CCC(NC(=O)NC(=O)c2ccccc2)CC1 [Compound 9, Tert-butyl 4-(3-benzoylureido)piperidine-1-carboxylate] — higher, > 10 µM
- O=C(NC(=O)c1ccccc1)Nc1nc2ccccc2o1 [Compound 10, N-(Benzo[d]oxazol-2-ylcarbamoyl)benzamide] — 4.4-fold lower, 2.18 µM
- Cc1c(C)c2c(c(C)c1O)CCC(C)(C(=O)NC(=O)NC(=O)c1ccccc1)O2 (stereo not shown) [Compound 11, N-(Benzoylcarbamoyl)-6-hydroxy-2,5,7,8-tetramethylchromane-2-carboxamide] — higher, > 10 µM
- Cc1cc(C)nc(NC(=O)NC(=O)c2ccccc2)n1 [Compound 13, N-((4,6-Dimethylpyrimidin-2-yl)carbamoyl)benzamide] — higher, > 10 µM
- O=C(NC(=O)c1ccccc1)Nc1cnc2ccccc2c1 [Compound 14, N-(Quinolin-3-ylcarbamoyl)benzamide] — higher, > 10 µM
- O=C(NC(=O)c1ccccc1)Nc1cc2ccccc2cn1 [Compound 15, N-(Isoquinolin-3-ylcarbamoyl)benzamide] — higher, > 10 µM
- O=C(NC(=S)Nc1cc2ccccc2cn1)c1ccccc1 [Compound 16, N-(Isoquinolin-3-ylcarbamothioyl)benzamide] — higher, > 10 µM

system: not given; test: not given; conditions: not given

Compared with `O=C(NC(=O)c1ccccc1)Nc1ccc2[nH]ccc2c1` [Compound 2], `Cc1cc2cc(NC(=O)NC(=O)c3ccccc3)ccc2[nH]1` [Compound 4, N-((2-Methyl-1H-indol-5-yl)carbamoyl)benzamide] is lower in melting point: 220 to 223 °C for the first, 209 to 211 °C for the second.

First: O=C(NC(=O)c1ccccc1)NC(=S)c1ccccn1 [Compound 3, N-((Pyridine-2-carbonothioyl)carbamoyl)benzamide]
Second: COc1cc(C(=S)NC(=O)NC(=O)c2ccccc2)ccc1O [Compound 12, N-((4-Hydroxy-3-methoxyphenylcarbonothioyl)carbamoyl) benzamide]
The melting point of the first is higher: 180 to 182 °C for the first, 176 to 177 °C for the second.

First: O=C(NC(=O)N1CCN(c2ncccn2)CC1)c1ccccc1 [Compound 5, N-Benzoyl-4-(pyrimidin-2-yl)piperazine-1-carboxamide]
Second: O=C(NC(=O)N1CCN(c2ccncc2)CC1)c1ccccc1 [Compound 6, N-Benzoyl-4-(pyridin-4-yl)piperazine-1-carboxamide]
The melting point of the first is lower: 145 to 147 °C for the first, 161 to 163 °C for the second.

Compared with `O=C(NC(=O)N1CCC(O)CC1)c1ccccc1` [Compound 7], `CC(C)(C)OC(=O)N1CCC(NC(=O)NC(=O)c2ccccc2)CC1` [Compound 9, Tert-butyl 4-(3-benzoylureido)piperidine-1-carboxylate] is lower in melting point: 170 to 172 °C for the first, 164 to 166 °C for the second.

First: Cc1ccc(N2CCN(C(=O)NC(=O)c3ccccc3)CC2)cc1 [Compound 8, N-Benzoyl-4-(p-tolyl)piperazine-1-carboxamide]
Second: O=C(NC(=O)c1ccccc1)Nc1nc2ccccc2o1 [Compound 10, N-(Benzo[d]oxazol-2-ylcarbamoyl)benzamide]
The melting point of the first is lower: 158 to 160 °C for the first, 180 to 182 °C for the second.

Compared with `Cc1c(C)c2c(c(C)c1O)CCC(C)(C(=O)NC(=O)NC(=O)c1ccccc1)O2` (stereo not shown) [Compound 11, N-(Benzoylcarbamoyl)-6-hydroxy-2,5,7,8-tetramethylchromane-2-carboxamide], `Cc1cc(C)nc(NC(=O)NC(=O)c2ccccc2)n1` [Compound 13, N-((4,6-Dimethylpyrimidin-2-yl)carbamoyl)benzamide] is higher in melting point: 155 to 157 °C for the first, 183 to 185 °C for the second.

Compared with `O=C(NC(=O)c1ccccc1)Nc1cnc2ccccc2c1` [Compound 14, N-(Quinolin-3-ylcarbamoyl)benzamide], `O=C(NC(=O)c1ccccc1)Nc1cc2ccccc2cn1` [Compound 15, N-(Isoquinolin-3-ylcarbamoyl)benzamide] is higher in melting point: 233 to 236 °C for the first, 237 to 238 °C for the second.

In the case of `O=C(NC(=S)Nc1cc2ccccc2cn1)c1ccccc1` [Compound 16, N-(Isoquinolin-3-ylcarbamothioyl)benzamide], the melting point is reported as 162 to 165 °C.
